# Laboratory results taken from patent publication US20240124432A1, “HERBICIDAL COMPOUNDS” (SYNGENTA CROP PROTECTION AG, priority 2020, published 2024).
# Experiments:
# Type in all cases: in vivo
# [1] = test system: SETFA; test: Pre-emergence biological efficacy; conditions: Setaria faberi, 312 h, evaluated after 13 days, read-out: damage to plant (100=total damage to plant; 0=no damage to plant)
# Method: (§1) Seeds of weeds and/or crops were sown in standard soil in pots. After cultivation for one day under controlled conditions in a glasshouse (at 24/19° C., day/night; 16 hours light), the plants were sprayed with an aqueous spray solution derived from the formulation of the technical active ingredient in a small amount of acetone and a special solvent and emulsifier mixture referred to as IF50 (11.12% Emulsogen EL360 TM+44.44% N-methylpyrrolidone+44.44% Dowanol DPM glycol ether), to create a 50g/l solution which was then diluted using 0.2% Genapol XO80 as diluent to give the desired final dose of test compound.
# (§2) The test plants were then grown under controlled conditions in the glasshouse (at 24/18° C., day/night; 15 hours light; 50% humidity) and watered twice daily. After 13 days the test was evaluated (100=total damage to plant; 0=no damage to plant).
# [2] = test system: LOLPE; test: Pre-emergence biological efficacy; conditions: Lolium perenne, 312 h, evaluated after 13 days, read-out: damage to plant (100=total damage to plant; 0=no damage to plant)
# Method: as §1, §2
# [3] = test system: EPHHL; test: Pre-emergence biological efficacy; conditions: Euphorbia heterophylla, 312 h, evaluated after 13 days, read-out: damage to plant (100=total damage to plant; 0=no damage to plant)
# Method: as §1, §2
# [4] = test system: IPOHE; test: Pre-emergence biological efficacy; conditions: Ipomoea hederacea, 312 h, evaluated after 13 days, read-out: damage to plant (100=total damage to plant; 0=no damage to plant)
# Method: as §1, §2
# [5] = test system: AMAPA; test: Pre-emergence biological efficacy; conditions: Amaranthus palmeri, 312 h, evaluated after 13 days, read-out: damage to plant (100=total damage to plant; 0=no damage to plant)
# Method: as §1, §2
# [6] = test system: ECHCG; test: Pre-emergence biological efficacy; conditions: Echinochloa crus-galli, 312 h, evaluated after 13 days, read-out: damage to plant (100=total damage to plant; 0=no damage to plant)
# Method: as §1, §2
# [7] = test system: SETFA; test: Post-emergence biological efficacy; conditions: Setaria faberi, 312 h, evaluated after 13 days, read-out: damage to plant (100=total damage to plant; 0=no damage to plant)
# Method: as §1, with “14 days” for “one day”
# (§3) The test plants were then grown under controlled conditions in the glasshouse (at 24/18° C., day/night; 15 hours light; 50% humidity)and watered twice daily. After 13 days the test was evaluated (100=total damage to plant; 0=no damage to plant).
# [8] = test system: DIGSA; test: Post-emergence biological efficacy; conditions: Digitaria sanguinalis, 312 h, evaluated after 13 days, read-out: damage to plant (100=total damage to plant; 0=no damage to plant)
# Method: as §1, with “14 days” for “one day”
# as §3
# [9] = test system: LOLPE; test: Post-emergence biological efficacy; conditions: Lolium perenne, 312 h, evaluated after 13 days, read-out: damage to plant (100=total damage to plant; 0=no damage to plant)
# Method: as §1, with “14 days” for “one day”
# as §3
# [10] = test system: EPHHL; test: Post-emergence biological efficacy; conditions: Euphorbia heterophylla, 312 h, evaluated after 13 days, read-out: damage to plant (100=total damage to plant; 0=no damage to plant)
# Method: as §1, with “14 days” for “one day”
# as §3
# [11] = test system: ELEIN; test: Post-emergence biological efficacy; conditions: 312 h, evaluated after 13 days, read-out: damage to plant (100=total damage to plant; 0=no damage to plant)
# Method: as §1, with “14 days” for “one day”
# as §3
# [12] = test system: CHEAL; test: Post-emergence biological efficacy; conditions: Chenopodium album, 312 h, evaluated after 13 days, read-out: damage to plant (100=total damage to plant; 0=no damage to plant)
# Method: as §1, with “14 days” for “one day”
# as §3
# [13] = test system: IPOHE; test: Post-emergence biological efficacy; conditions: Ipomoea hederacea, 312 h, evaluated after 13 days, read-out: damage to plant (100=total damage to plant; 0=no damage to plant)
# Method: as §1, with “14 days” for “one day”
# as §3
# [14] = test system: AMAPA; test: Post-emergence biological efficacy; conditions: Amaranthus palmeri, 312 h, evaluated after 13 days, read-out: damage to plant (100=total damage to plant; 0=no damage to plant)
# Method: as §1, with “14 days” for “one day”
# as §3
# [15] = test system: ECHCG; test: Post-emergence biological efficacy; conditions: Echinochloa crus-galli, 312 h, evaluated after 13 days, read-out: damage to plant (100=total damage to plant; 0=no damage to plant)
# Method: as §1, with “14 days” for “one day”
# as §3
SMILES,pest or weed control at 250 g/ha [1] [%],pest or weed control at 250 g/ha [2] [%],pest or weed control at 250 g/ha [3] [%],pest or weed control at 250 g/ha [4] [%],pest or weed control at 250 g/ha [5] [%],pest or weed control at 250 g/ha [6] [%],pest or weed control at 250 g/ha [7] [%],pest or weed control at 250 g/ha [8] [%],pest or weed control at 250 g/ha [9] [%],pest or weed control at 250 g/ha [10] [%],pest or weed control at 250 g/ha [11] [%],pest or weed control at 250 g/ha [12] [%],pest or weed control at 250 g/ha [13] [%],pest or weed control at 250 g/ha [14] [%],pest or weed control at 250 g/ha [15] [%]
"CCOC(=O)C1(C)CC(c2cc(-c3cc(Cl)cnc3F)c(F)cc2Cl)=NO1 (stereo not drawn) [Compound 1-199, Ethyl 3-[2-chloro-5-(5-chloro-2-fluoro-3-pyridyl)-4-fluoro-phenyl]-5-methyl-4H-isoxazole-5-carboxylate]",10,10,30,0,80,0,60,50,40,90,20,90,100,100,70
"CCOC(=O)C1(C)CC(c2cc(-c3cccnc3F)c(F)cc2Cl)=NO1 (stereo not drawn) [Compound 1-211, Ethyl 3-[2-chloro-4-fluoro-5-(2-fluoro-3-pyridyl)phenyl]-5-methyl-4H-isoxazole-5-carboxylate]",0,0,0,0,0,0,20,10,0,30,20,90,50,100,20
"CCOC(=O)C1(C)CC(c2cc(-c3cc(C)cnc3F)c(F)cc2Cl)=NO1 (stereo not drawn) [Compound 1-223, Ethyl 3-[2-chloro-4-fluoro-5-(2-fluoro-5-methyl-3-pyridyl)phenyl]-5-methyl-4H-isoxazole-5-carboxylate]",0,0,0,0,0,0,80,30,20,70,10,80,100,100,50
"CCOC(=O)C1(C)CC(c2cc(-c3cc(C(F)(F)F)cnc3F)c(F)cc2Cl)=NO1 (stereo not drawn) [Compound 1-235, Ethyl 3-[2-chloro-4-fluoro-5-[2-fluoro-5-(trifluoromethyl)-3-pyridyl]phenyl]-5-methyl-4H-isoxazole-5-carboxylate]",0,0,50,60,100,0,100,70,60,100,100,100,100,100,60
